Experimental findings from patent publication US6518243B1, “Desleucyl glycopeptide antibiotics and methods of making same” (Trustees of Princeton University, priority 1999, dated 2003) are described below.

One assay has as its system E. faecium CL 4931. The experiment in a line: MIC determination in BHI media, OD600. The class given is cell-based. The settings on record: BHI + 0.1% casamino acids, 18 hours at 37° C., ≧90% OD600 inhibition. Put shortly:
(§1)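 MIC was judged per concentration from endpoint plate readings after an 18-hour incubation at 37° C, using log-phase inoculum at about 5×10^5 CFU/ml and test agents serially diluted in DMSO.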

Another assay deals with S aureus ATCC 29213. The experiment in a line: MIC determination in BHI media, OD600. The class given is cell-based. The settings on record: BHI + 0.1% casamino acids, 18 hours at 37° C., ≧90% OD600 inhibition. Put shortly: as §1
The next assay relates to E. faecalis ATCC 29212. The experiment in a line: MIC determination in BHI media, OD600. The class given is cell-based. The conditions noted are these: BHI + 0.1% casamino acids, 18 hours at 37° C., ≧90% OD600 inhibition. The essentials:
as §1

For the next assay, the system named is E. faecium ATCC 49624. The experiment in a line: MIC determination in BHI media, OD600. The class given is cell-based. The conditions noted are these: BHI + 0.1% casamino acids, 18 hours at 37° C., ≧90% OD600 inhibition. Put shortly: as §1
The test system of the next assay is S. Aureus ATCC 33591. The experiment in a line: MIC determination in BHI media, OD600. The class given is cell-based. The conditions noted are these: BHI + 0.1% casamino acids, 18 hours at 37° C., ≧90% OD600 inhibition. Put shortly: as §1
For the next assay, the system named is E. Faecalis CL 4877. The experiment in a line: MIC determination in BHI media, OD600. It is filed as cell-based. The conditions noted are these: BHI + 0.1% casamino acids, 18 hours at 37° C., ≧90% OD600 inhibition. Put shortly:
as §1

The next assay deals with S. aureus (ATCC 29213). The experiment in a line: Zone of inhibition screen, 96 well agar array format. The class given is cell-based. More on the design: scale not given here. The settings on record: zone of inhibition relative to 1 mg/ml stock solution of p-chlorobiphenylvancomycin. Put shortly:
(§2)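 Antibacterial testing on a 96-well agar array; each compound screened separately.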

A further assay relates to E. faceium (ATCC 49624). The description is as above. The class given is cell-based, E. faecium. The settings on record: zone of inhibition relative to 1 mg/ml stock solution of p-chlorobiphenylvancomycin. The essentials: as §2
For the next assay, the system named is E. faecalis (CL 4877). The description is as above. It is filed as cell-based. The settings on record: zone of inhibition relative to 1 mg/ml stock solution of p-chlorobiphenylvancomycin. More on the design: scale not given here. Put shortly:
as §2
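For zone score, E. faecium ATCC 49624 in this document: score 3 means fourfold and score 4 sixteenfold the reference zone size.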

Consider `CC1OC(OC2C(Oc3c4cc5cc3Oc3ccc(cc3Cl)C(O)C3NC(=O)C(NC(=O)C5NC(=O)C(CC(N)=O)NC(=O)C(NC(=O)C(N)CSC(C)(C)C)C(O)c5ccc(c(Cl)c5)O4)c4ccc(O)c(c4)-c4c(O)cc(O)cc4C(C(=O)O)NC3=O)OC(CO)C(O)C2O)CC(C)(NCc2ccc(-c3ccc(Cl)cc3)cc2)C1O` (stereo not shown) [Compound 334], for which the MIC E. faecium CL 4931 in the assay with E. faecium CL 4931 was 25 µg/mL. For the same molecule, in the assay on S aureus ATCC 29213, the MIC S. aureus ATCC 29213 is 0.25 µg/mL. Also, the MIC E. faecalis ATCC 29212 in the assay with E. faecalis ATCC 29212 was found to be 0.78 µg/mL. The MIC E. faecium ATCC 49624 with E. faecium ATCC 49624 was 0.12 µg/mL. Further, the MIC S. aureus ATCC 33591 in the assay on S. Aureus ATCC 33591 came to 0.25 µg/mL.
Consider `CC1OC(OC2C(Oc3c4cc5cc3Oc3ccc(cc3Cl)C(O)C3NC(=O)C(NC(=O)C5NC(=O)C(CC(N)=O)NC(=O)C(NC(=O)C(N)CSC(C)(C)C)C(O)c5ccc(c(Cl)c5)O4)c4ccc(O)c(c4)-c4c(O)cc(O)cc4C(C(=O)O)NC3=O)OC(CO)C(O)C2O)CC(C)(NCc2ccc(-c3ccc(Cl)cc3)cc2)C1O` (stereo not shown) [Compound 333], for which the MIC E. faecalis CL 4877 in the assay on E. Faecalis CL 4877 came out at 25 µg/mL. The MIC E. faecium CL 4931 in the assay with E. faecium CL 4931 was determined as 25 µg/mL.
Regarding `CC(C)OCC(N)C(=O)NC1C(=O)NC(CC(N)=O)C(=O)NC2C(=O)NC3C(=O)NC(C(=O)NC(C(=O)O)c4cc(O)cc(O)c4-c4cc3ccc4O)C(O)c3ccc(c(Cl)c3)Oc3cc2cc(c3OC2OC(CO)C(O)C(O)C2OC2CC(C)(NCc3ccc(-c4ccc(Cl)cc4)cc3)C(O)C(C)O2)Oc2ccc(cc2Cl)C1O` (stereo not shown) [Compound 529], the MIC E. faecium CL 4931 in the assay with E. faecium CL 4931 was 25 µg/mL. Further, the MIC S. aureus ATCC 29213 in the assay on S aureus ATCC 29213 was found to be 0.25 µg/mL. Further, the MIC E. faecalis ATCC 29212 with E. faecalis ATCC 29212 stood at 0.78 µg/mL. Also, the MIC E. faecium ATCC 49624 with E. faecium ATCC 49624 turned out to be 0.12 µg/mL. Besides, in the assay on S. Aureus ATCC 33591, the MIC S. aureus ATCC 33591 amounted to 0.25 µg/mL.
As to `CNC(COC(C)(C)C)C(=O)NC1C(=O)NC(CC(N)=O)C(=O)NC2C(=O)NC3C(=O)NC(C(=O)NC(C(=O)O)c4cc(O)cc(O)c4-c4cc3ccc4O)C(O)c3ccc(c(Cl)c3)Oc3cc2cc(c3OC2OC(CO)C(O)C(O)C2OC2CC(C)(NCc3ccc(-c4ccc(Cl)cc4)cc3)C(O)C(C)O2)Oc2ccc(cc2Cl)C1O` (stereo not shown) [Compound 526], the MIC E. faecium CL 4931 in the assay on E. faecium CL 4931 was 25 µg/mL. Besides, the MIC S. aureus ATCC 29213 in the assay on S aureus ATCC 29213 was 0.39 µg/mL. Moreover, in the assay with E. faecalis ATCC 29212, the MIC E. faecalis ATCC 29212 was 0.78 µg/mL. In the assay with E. faecium ATCC 49624, the MIC E. faecium ATCC 49624 was determined as 0.25 µg/mL. Further, the MIC S. aureus ATCC 33591 in the assay with S. Aureus ATCC 33591 is 0.39 µg/mL.
With `CC1OC(OC2C(Oc3c4cc5cc3Oc3ccc(cc3Cl)C(O)C3NC(=O)C(NC(=O)C5NC(=O)C(CC(N)=O)NC(=O)C(NC(=O)C(N)COCc5ccccc5)C(O)c5ccc(c(Cl)c5)O4)c4ccc(O)c(c4)-c4c(O)cc(O)cc4C(C(=O)O)NC3=O)OC(CO)C(O)C2O)CC(C)(NCc2ccc(-c3ccc(Cl)cc3)cc2)C1O` (stereo not shown) [Compound 338], the MIC E. faecalis CL 4877 in the assay on E. Faecalis CL 4877 stood at 25 µg/mL. In addition, the MIC E. faecium ATCC 49624 in the assay with E. faecium ATCC 49624 turned out to be 0.25 µg/mL. Also, the MIC S. aureus ATCC 33591 in the assay on S. Aureus ATCC 33591 came to 0.39 µg/mL.
Regarding `CC1OC(OC2C(Oc3c4cc5cc3Oc3ccc(cc3Cl)C(O)C3NC(=O)C(NC(=O)C5NC(=O)C(CC(N)=O)NC(=O)C(NC(=O)C(N)CCCNC(=O)c5cnccn5)C(O)c5ccc(c(Cl)c5)O4)c4ccc(O)c(c4)-c4c(O)cc(O)cc4C(C(=O)O)NC3=O)OC(CO)C(O)C2O)CC(C)(NCc2ccc(-c3ccc(Cl)cc3)cc2)C1O` (stereo not shown) [Compound 83], the MIC E. faecium CL 4931 with E. faecium CL 4931 turned out to be 25 µg/mL. The MIC S. aureus ATCC 29213 in the assay with S aureus ATCC 29213 stood at 0.39 µg/mL. In the assay with E. faecalis ATCC 29212, the MIC E. faecalis ATCC 29212 turned out to be 0.78 µg/mL. Besides, in the assay with E. faecium ATCC 49624, the MIC E. faecium ATCC 49624 came to 0.25 µg/mL. In addition, the MIC S. aureus ATCC 33591 in the assay on S. Aureus ATCC 33591 is 0.78 µg/mL. Further, in the assay with S. aureus (ATCC 29213), the “zone score, S. aureus ATCC 29213” value is on record as 2. For the same molecule, in the assay on E. faceium (ATCC 49624), the “zone score, E. faecium ATCC 49624” value is on record as 2.
On to `CSCCC(N)C(=O)NC1C(=O)NC(CC(N)=O)C(=O)NC2C(=O)NC3C(=O)NC(C(=O)NC(C(=O)O)c4cc(O)cc(O)c4-c4cc3ccc4O)C(O)c3ccc(c(Cl)c3)Oc3cc2cc(c3OC2OC(CO)C(O)C(O)C2OC2CC(C)(NCc3ccc(-c4ccc(Cl)cc4)cc3)C(O)C(C)O2)Oc2ccc(cc2Cl)C1O` (stereo not shown) [Compound 41], for which the MIC S. aureus ATCC 29213 in the assay on S aureus ATCC 29213 amounted to 0.39 µg/mL. Further, the MIC E. faecalis ATCC 29212 in the assay on E. faecalis ATCC 29212 was 0.78 µg/mL. The MIC E. faecium ATCC 49624 in the assay with E. faecium ATCC 49624 was 0.25 µg/mL. The MIC S. aureus ATCC 33591 in the assay with S. Aureus ATCC 33591 came to 0.39 µg/mL. Moreover, the “zone score, E. faecalis CL 4877” value in the assay on E. faecalis (CL 4877) amounted to 2. Moreover, the “zone score, E. faecium ATCC 49624” value with E. faceium (ATCC 49624) amounted to 2.
`CNC(C(=O)NC1C(=O)NC(CC(N)=O)C(=O)NC2C(=O)NC3C(=O)NC(C(=O)NC(C(=O)O)c4cc(O)cc(O)c4-c4cc3ccc4O)C(O)c3ccc(c(Cl)c3)Oc3cc2cc(c3OC2OC(CO)C(O)C(O)C2OC2CC(C)(NCc3ccc(-c4ccc(Cl)cc4)cc3)C(O)C(C)O2)Oc2ccc(cc2Cl)C1O)C(C)C` (stereo not shown) [Compound 340]: the MIC E. faecalis CL 4877 in the assay with E. Faecalis CL 4877 is 25 µg/mL. Further, in the assay on S aureus ATCC 29213, the MIC S. aureus ATCC 29213 was found to be 0.39 µg/mL. Besides, the MIC E. faecium ATCC 49624 in the assay on E. faecium ATCC 49624 was 0.39 µg/mL. Also, in the assay with S. Aureus ATCC 33591, the MIC S. aureus ATCC 33591 came to 0.39 µg/mL.
